# Activity calls are given as the source filed them. The calls are words filed in the database; no cut-off is given here.
# Legend:
# [1] = Ratio of drug level in brain to blood assessed as ibuprofen in C57BL/6 mouse at 246.883 mg/kg, ip measured after 1 hr by LC-MS/MS analysis; type: ADME, organism-based; set-up: dose 246.883 mg/kg, route intraperitoneal; conditions: 246.88 mg/kg
# [2] = test system: Brain; assay: Antioxidant activity in Sprague-Dawley rat brain homogenate assessed as attenuation of toxin-induced lipid peroxidation at 1 mM by modified TBA assay; type: functional, tissue-based
# [3] = test system: Brain; assay: Drug level in C57BL/6 mouse brain assessed as ibuprofen at 246.883 mg/kg, ip measured after 1 hr by LC-MS/MS analysis; type: ADME, organism-based; set-up: dose 246.883 mg/kg, route intraperitoneal; conditions: in vivo, 246.88 mg/kg
# [4] = test system: Blood; assay: Drug level in C57BL/6 mouse blood assessed as ibuprofen at 246.883 mg/kg, ip measured after 1 hr by LC-MS/MS analysis; type: ADME, organism-based; set-up: dose 246.883 mg/kg, route intraperitoneal; conditions: in vivo, 246.88 mg/kg
# [5] = Drug level in C57BL/6 mouse brain at 150 mg/kg, ip measured after 1 hr by LC-MS/MS analysis; type: ADME, organism-based; set-up: dose 150 mg/kg, route intraperitoneal; conditions: read-out: Drug uptake
# [6] = Ratio of drug level in brain to blood assessed as salicylic acid in C57BL/6 mouse at 150 mg/kg, ip measured after 1 hr by LC-MS/MS analysis; type: ADME, organism-based; set-up: dose 150 mg/kg, route intraperitoneal
# [7] = Drug level in C57BL/6 mouse blood at 150 mg/kg, ip measured after 1 hr by LC-MS/MS analysis; type: ADME, organism-based; set-up: dose 150 mg/kg, route intraperitoneal; conditions: read-out: Drug uptake
# [8] = test system: Blood; assay: Drug level in C57BL/6 mouse blood assessed as total salicylate at 150 mg/kg, ip measured after 1 hr by LC-MS/MS analysis; type: ADME, organism-based; set-up: dose 150 mg/kg, route intraperitoneal; conditions: in vivo
# [9] = test system: Brain; assay: Drug level in C57BL/6 mouse brain assessed as total salicylate at 150 mg/kg, ip measured after 1 hr by LC-MS/MS analysis; type: ADME, organism-based; set-up: dose 150 mg/kg, route intraperitoneal; conditions: in vivo
# [10] = Ratio of drug level in brain to blood in C57BL/6 mouse at 150 mg/kg, ip measured after 1 hr by LC-MS/MS analysis; type: ADME, organism-based; set-up: dose 150 mg/kg, route intraperitoneal
# [11] = Ratio of drug level in brain to blood assessed as total salicylate in C57BL/6 mouse at 150 mg/kg, ip measured after 1 hr by LC-MS/MS analysis; type: ADME, organism-based; set-up: dose 150 mg/kg, route intraperitoneal
# [12] = test system: Brain; assay: Drug level in C57BL/6 mouse brain assessed as salicylic acid at 150 mg/kg, ip measured after 1 hr by LC-MS/MS analysis; type: ADME, organism-based; set-up: dose 150 mg/kg, route intraperitoneal; conditions: in vivo
# [13] = test system: Blood; assay: Drug level in C57BL/6 mouse blood assessed as salicylic acid at 150 mg/kg, ip measured after 1 hr by LC-MS/MS analysis; type: ADME, organism-based; set-up: dose 150 mg/kg, route intraperitoneal; conditions: in vivo
# [14] = test system: Blood; assay: Drug level in C57BL/6 mouse blood assessed as ibuprofen at 305.08 mg/kg, ip measured after 1 hr by LC-MS/MS analysis; type: ADME, organism-based; set-up: dose 305.08 mg/kg, route intraperitoneal; conditions: in vivo
# [15] = Ratio of drug level in brain to blood assessed as ibuprofen in C57BL/6 mouse at 305.08 mg/kg, ip measured after 1 hr by LC-MS/MS analysis; type: ADME, organism-based; set-up: dose 305.08 mg/kg, route intraperitoneal
# [16] = test system: Brain; assay: Drug level in C57BL/6 mouse brain assessed as ibuprofen at 305.08 mg/kg, ip measured after 1 hr by LC-MS/MS analysis; type: ADME, organism-based; set-up: dose 305.08 mg/kg, route intraperitoneal; conditions: in vivo
# [17] = Drug level in C57BL/6 mouse blood at 260.935 mg/kg, ip measured after 1 hr by LC-MS/MS analysis; type: ADME, organism-based; set-up: dose 260.935 mg/kg, route intraperitoneal; conditions: 260.94 mg/kg, read-out: Drug uptake
# [18] = test system: Blood; assay: Drug level in C57BL/6 mouse blood assessed as acetylsalicylic acid at 260.935 mg/kg, ip measured after 1 hr by LC-MS/MS analysis; type: ADME, organism-based; set-up: dose 260.935 mg/kg, route intraperitoneal; conditions: in vivo, 260.94 mg/kg
# [19] = test system: Brain; assay: Drug level in C57BL/6 mouse brain assessed as acetylsalicylic acid at 260.935 mg/kg, ip measured after 1 hr by LC-MS/MS analysis; type: ADME, organism-based; set-up: dose 260.935 mg/kg, route intraperitoneal; conditions: in vivo, 260.94 mg/kg
# [20] = Drug level in C57BL/6 mouse brain at 260.935 mg/kg, ip measured after 1 hr by LC-MS/MS analysis; type: ADME, organism-based; set-up: dose 260.935 mg/kg, route intraperitoneal; conditions: 260.94 mg/kg, read-out: Drug uptake
# [21] = Ratio of drug level in brain to blood assessed as acetylsalicylic acid in C57BL/6 mouse at 260.935 mg/kg, ip measured after 1 hr by LC-MS/MS analysis; type: ADME, organism-based; set-up: dose 260.935 mg/kg, route intraperitoneal; conditions: 260.94 mg/kg
# [22] = Ratio of drug level in brain to blood in C57BL/6 mouse at 260.935 mg/kg, ip measured after 1 hr by LC-MS/MS analysis; type: ADME, organism-based; set-up: dose 260.935 mg/kg, route intraperitoneal; conditions: 260.94 mg/kg
# [23] = test system: Brain; assay: Drug level in C57BL/6 mouse brain assessed as acetylsalicylic acid at 327.58 mg/kg, ip measured after 1 hr by LC-MS/MS analysis; type: ADME, organism-based; set-up: dose 327.58 mg/kg, route intraperitoneal; conditions: in vivo
# [24] = test system: Blood; assay: Drug level in C57BL/6 mouse blood assessed as acetylsalicylic acid at 327.58 mg/kg, ip measured after 1 hr by LC-MS/MS analysis; type: ADME, organism-based; set-up: dose 327.58 mg/kg, route intraperitoneal; conditions: in vivo
# [25] = Ratio of drug level in brain to blood assessed as acetylsalicylic acid in C57BL/6 mouse at 327.58 mg/kg, ip measured after 1 hr by LC-MS/MS analysis; type: ADME, organism-based; set-up: dose 327.58 mg/kg, route intraperitoneal
compound,measurement,setting,value
CC(C)Cc1ccc(C(C)C(=O)NC23CC4CC(CC(C4)C2)C3)cc1 (stereo not drawn),Ratio,[1],0.39
same,Activity,[2],Active
same,Drug uptake,[3],11.83 ng/mL
same,Drug uptake,[4],30.45 ng/mL
CC(=O)Oc1ccccc1C(=O)O [ASPIRIN],concentration at 1 h,[5],22.5 ng/mL
same,Ratio,[6],1.06
same,concentration at 1 h,[7],45.5 ng/mL
same,Drug uptake,[8],41.45 ng/mL
same,Activity,[2],Active
same,Drug uptake,[9],24.6 ng/mL
same,Kp at 1 h,[10],0.49
same,Ratio,[11],0.59
same,Drug uptake,[12],7.37 ng/mL
same,Drug uptake,[13],6.95 ng/mL
CC(C)Cc1ccc(C(C)C(=O)OC23C4C5CC6C7C5C2C7C2(OCCCN23)C64)cc1 (stereo not drawn),Activity,[2],Active
same,Drug uptake,[14],40.28 ng/mL
same,Ratio,[15],1.39
same,Drug uptake,[16],55.8 ng/mL
CC(=O)Oc1ccccc1C(=O)NC12CC3CC(CC(C3)C1)C2,Activity,[2],Active
same,concentration at 1 h,[17],17.4 ng/mL
same,Drug uptake,[18],13.84 ng/mL
same,Drug uptake,[19],6.81 ng/mL
same,concentration at 1 h,[20],8.58 ng/mL
same,Ratio,[21],0.49
same,Kp at 1 h,[22],0.49
CC(=O)Oc1ccccc1C(=O)OC12C3C4CC5C6C4C1C6C1(OCCCN12)C53 (stereo not drawn),Activity,[2],Active
same,Drug uptake,[23],59.03 ng/mL
same,Drug uptake,[24],44.11 ng/mL
same,Ratio,[25],1.34
CC(C)Cc1ccc(C(C)C(=O)O)cc1 (stereo not drawn) [IBUPROFEN],Activity,[2],Active
same,concentration at 1 h,[17],61.4 ng/mL
same,concentration at 1 h,[20],52.5 ng/mL
same,Kp at 1 h,[22],0.9

# — ChEMBL document CHEMBL1158397, “Polycyclic cage structures as carrier molecules for neuroprotective non-steroidal anti-inflammatory drugs” (Eur J Med Chem, 2009)
